Source: patent US20060058374A1, “Urotensin II receptor agents” (priority 2002, published 2006)

Key:
[1] = molecular target: T1, Dopamine D2 (Homo sapiens, UniProt P14416); assay: R-SAT assay, Dopamine D2; assay type: cell-based
T1 construct: expressed in transfected cells; host or cells: NIH3T3
Experimental: (§1) The test compound of Formula III was screened according to a modification of the method described in U.S. Pat. No. 5,912,312. The method, herein referred to as Method 1, consists of the following:
(§2) Receptor Selection and Amplification (R-SAT) Assays.
(§3) R-SAT assays were performed with minor modifications from that previously described (6). Briefly, NIH3T3 cells were grown in tissue culture treated rollerbottles to 40-50% confluence. Cells were transfected for 12-16 hours with plasmid DNAs using superfect (Qiagen Inc.) as per manufacture's protocols. R-SAT's were generally performed with 10 μg/rollerbottle of receptor and 50 μg/rollerbottle of Beta-galactosidase plasmid DNA. All receptor and G-protein constructs used were in the PSI mammalian expression vector (Promega Inc.). The transfected cells were then trypsinized and frozen in DMEM containing 10% DMSO. Frozen cells were later thawed, plated at 10,000-40,000 cells per well of a 96 ½ area plate that contained drug. […] Media was then removed from the plates and marker gene activity was measured by the addition of the beta-galactosidase substrate ONPG (in PBS with 5% NP-40). The resulting colorimetric reaction was measured in a spectrophotometric plate reader (Titertek Inc.) at […].
(§4) EC50, IC50 and Ki are presented as the negative of the calculated potency in Molar.

[2] = molecular target: T2, Serotonin 5HT2a (Homo sapiens, UniProt P28223); assay: R-SAT assay, Serotonin 5HT2a; assay type: cell-based
T2 construct: expressed in transfected cells; host or cells: NIH3T3
Experimental: as §1, §2, §3, §4

[3] = molecular target: T3, Serotonin 5HT2b (Homo sapiens, UniProt P41595); assay: R-SAT assay, Serotonin 5HT2b; assay type: cell-based
T3 construct: expressed in transfected cells; host or cells: NIH3T3
Experimental: as §1, §2
R-SAT assays were performed with minor modifications from that previously described (6). Briefly, NIH3T3 cells were grown in tissue culture treated rollerbottles to 40-50% confluence. Cells were transfected for 12-16 hours with plasmid DNAs using superfect (Qiagen Inc.) as per manufacture's protocols. R-SAT's were generally performed with 10 μg/rollerbottle of receptor and 50 μg/rollerbottle of Beta-galactosidase plasmid DNA. All receptor and G-protein constructs used were in the PSI mammalian expression vector (Promega Inc.). The transfected cells were then trypsinized and frozen in DMEM containing 10% DMSO. Frozen cells were later thawed, plated at 10,000-40,000 cells per well of a 96 ½ area plate that contained drug. Cells were then grown in a humidified atmosphere with 5% ambient CO2 for five days. Media was then removed from the plates and marker gene activity was measured by the addition of the beta-galactosidase substrate ONPG (in PBS with 5% NP-40). The resulting colorimetric reaction was measured in a spectrophotometric plate reader (Titertek Inc.) at […].
as §4

[4] = molecular target: T4, Serotonin 5HT6 (Homo sapiens, UniProt P50406); assay: R-SAT assay, Serotonin 5HT6; assay type: cell-based; details: percent maximal activation relative to control compound
T4 construct: expressed in transfected cells; host or cells: NIH3T3
Experimental: as §1, §2, §3, §4

[5] = molecular target: T5, Serotonin 5HT7 (Homo sapiens, UniProt P34969); assay: R-SAT assay, Serotonin 5HT7; assay type: cell-based; details: percent maximal activation relative to control compound
T5 construct: expressed in transfected cells; host or cells: NIH3T3
Experimental: as §1, §2, §3, §4

[6] = molecular target: T6, Beta Adrenergic 2 (Homo sapiens, UniProt P07550); assay: R-SAT assay, Beta Adrenergic 2; assay type: cell-based
T6 construct: expressed in transfected cells; host or cells: NIH3T3
Experimental: as §1, §2, §3, §4

[7] = molecular target: T7, k opioid (Homo sapiens, UniProt P41145); assay: R-SAT assay, k opioid; assay type: cell-based; details: percent maximal activation relative to control compound
T7 construct: expressed in transfected cells; host or cells: NIH3T3
Experimental: as §1, §2, §3, §4

[8] = molecular target: T8, CCKa (Homo sapiens, UniProt P32238); assay: R-SAT assay, CCKa; assay type: cell-based; details: percent maximal activation relative to control compound
T8 construct: expressed in transfected cells; host or cells: NIH3T3
Experimental: as §1, §2, §3, §4

[9] = system: male NSA mice; assay: Locomotor activity in mice after i.v. injection; assay type: in vivo
Experimental: The test compound of Formula III was tested at 10 mg/kg, i.v. in male NSA mice. Locomotor activity was measured for 15 min following injection. The locomotor activity was decreased relative to sham injected animals. Within a few minutes into the session, the mice sat quietly in a corner of the chamber in a normal posture.
Following the initial experiment, a dose-response curves using 1, 3, and 10 mg/kg, i.v. were conducted. The effects of 10 mg/kg the test compound of Formula III were replicated.

[10] = competitive antagonist mode, percent maximal inhibition relative to control standard compound
[11] = percent maximal activation relative to control compound
[12] = inverse agonist mode, percent maximal inhibition relative to repression of basal activity by a control standard compound

T3 sequence (P41595 whole entry): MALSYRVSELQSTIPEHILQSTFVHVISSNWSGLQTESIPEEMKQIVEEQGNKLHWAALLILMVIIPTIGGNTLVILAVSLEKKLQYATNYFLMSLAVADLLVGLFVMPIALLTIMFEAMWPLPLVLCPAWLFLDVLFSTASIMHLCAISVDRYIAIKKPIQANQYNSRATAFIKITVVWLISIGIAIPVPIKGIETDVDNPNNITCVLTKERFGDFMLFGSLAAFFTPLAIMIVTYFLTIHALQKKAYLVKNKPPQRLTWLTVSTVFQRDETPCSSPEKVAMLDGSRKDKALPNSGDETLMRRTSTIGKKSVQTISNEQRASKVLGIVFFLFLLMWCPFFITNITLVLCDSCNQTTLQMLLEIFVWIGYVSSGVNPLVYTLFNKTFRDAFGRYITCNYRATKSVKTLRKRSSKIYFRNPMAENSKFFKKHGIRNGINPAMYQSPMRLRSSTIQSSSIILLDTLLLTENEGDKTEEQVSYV
T2 sequence (P28223 whole entry): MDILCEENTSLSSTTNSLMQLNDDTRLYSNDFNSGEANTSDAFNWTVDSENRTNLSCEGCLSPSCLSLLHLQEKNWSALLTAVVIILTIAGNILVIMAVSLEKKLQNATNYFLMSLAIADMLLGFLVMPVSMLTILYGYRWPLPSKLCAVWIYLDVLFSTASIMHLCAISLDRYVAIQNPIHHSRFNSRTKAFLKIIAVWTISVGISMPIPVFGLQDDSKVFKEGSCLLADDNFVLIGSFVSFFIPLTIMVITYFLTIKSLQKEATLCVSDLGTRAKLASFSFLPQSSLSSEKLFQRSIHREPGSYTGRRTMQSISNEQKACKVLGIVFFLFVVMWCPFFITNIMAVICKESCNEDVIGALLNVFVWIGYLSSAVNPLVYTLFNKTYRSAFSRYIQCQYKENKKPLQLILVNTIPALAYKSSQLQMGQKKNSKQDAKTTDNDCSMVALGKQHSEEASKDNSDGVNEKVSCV
T6 sequence (P07550 whole entry): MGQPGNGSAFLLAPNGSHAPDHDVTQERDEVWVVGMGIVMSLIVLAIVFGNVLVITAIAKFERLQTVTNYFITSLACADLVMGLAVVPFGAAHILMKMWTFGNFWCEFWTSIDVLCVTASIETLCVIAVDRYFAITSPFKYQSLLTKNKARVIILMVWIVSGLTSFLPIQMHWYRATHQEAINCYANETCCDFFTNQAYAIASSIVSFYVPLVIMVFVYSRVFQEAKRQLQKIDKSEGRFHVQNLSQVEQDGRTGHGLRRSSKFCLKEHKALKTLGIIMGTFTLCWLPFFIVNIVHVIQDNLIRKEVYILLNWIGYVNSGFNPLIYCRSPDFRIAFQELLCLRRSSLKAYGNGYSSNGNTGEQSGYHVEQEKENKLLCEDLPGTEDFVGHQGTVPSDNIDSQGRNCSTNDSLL
T1 sequence (P14416 whole entry): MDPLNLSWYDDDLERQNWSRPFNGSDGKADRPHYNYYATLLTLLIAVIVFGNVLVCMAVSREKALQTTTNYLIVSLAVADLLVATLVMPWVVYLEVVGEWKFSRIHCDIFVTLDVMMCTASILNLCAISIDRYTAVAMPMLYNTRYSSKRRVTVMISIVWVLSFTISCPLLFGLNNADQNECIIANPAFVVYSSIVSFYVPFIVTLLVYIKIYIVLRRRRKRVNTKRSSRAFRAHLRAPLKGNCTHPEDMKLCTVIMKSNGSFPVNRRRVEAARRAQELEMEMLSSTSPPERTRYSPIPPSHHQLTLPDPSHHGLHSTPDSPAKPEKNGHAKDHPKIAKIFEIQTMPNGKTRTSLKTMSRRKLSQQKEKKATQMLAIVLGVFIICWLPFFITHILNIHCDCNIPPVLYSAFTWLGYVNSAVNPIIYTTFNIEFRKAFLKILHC
T8 sequence (P32238 whole entry): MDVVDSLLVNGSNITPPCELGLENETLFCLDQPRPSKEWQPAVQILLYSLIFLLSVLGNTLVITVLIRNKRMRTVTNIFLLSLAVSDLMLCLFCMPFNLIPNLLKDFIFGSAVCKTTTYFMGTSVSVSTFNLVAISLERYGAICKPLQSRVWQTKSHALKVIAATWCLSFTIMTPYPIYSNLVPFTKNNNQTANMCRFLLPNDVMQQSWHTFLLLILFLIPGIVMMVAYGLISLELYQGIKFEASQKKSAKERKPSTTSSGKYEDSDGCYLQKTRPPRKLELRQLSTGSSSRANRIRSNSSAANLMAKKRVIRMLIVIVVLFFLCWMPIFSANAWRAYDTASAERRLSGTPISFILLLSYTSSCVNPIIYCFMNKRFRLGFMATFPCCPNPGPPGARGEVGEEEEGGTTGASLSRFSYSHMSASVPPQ
T5 sequence (P34969 whole entry): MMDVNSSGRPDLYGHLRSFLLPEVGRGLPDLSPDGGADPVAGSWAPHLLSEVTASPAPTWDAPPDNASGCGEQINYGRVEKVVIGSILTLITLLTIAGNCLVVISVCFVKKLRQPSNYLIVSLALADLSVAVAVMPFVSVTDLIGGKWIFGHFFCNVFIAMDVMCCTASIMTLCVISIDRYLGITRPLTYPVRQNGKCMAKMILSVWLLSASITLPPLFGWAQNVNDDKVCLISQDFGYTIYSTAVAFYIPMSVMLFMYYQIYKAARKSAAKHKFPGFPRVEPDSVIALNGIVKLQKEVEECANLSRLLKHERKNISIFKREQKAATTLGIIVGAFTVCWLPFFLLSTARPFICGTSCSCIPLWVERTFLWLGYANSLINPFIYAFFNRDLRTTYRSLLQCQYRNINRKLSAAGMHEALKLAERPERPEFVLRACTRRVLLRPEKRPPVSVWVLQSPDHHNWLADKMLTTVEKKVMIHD
T4 sequence (P50406 whole entry): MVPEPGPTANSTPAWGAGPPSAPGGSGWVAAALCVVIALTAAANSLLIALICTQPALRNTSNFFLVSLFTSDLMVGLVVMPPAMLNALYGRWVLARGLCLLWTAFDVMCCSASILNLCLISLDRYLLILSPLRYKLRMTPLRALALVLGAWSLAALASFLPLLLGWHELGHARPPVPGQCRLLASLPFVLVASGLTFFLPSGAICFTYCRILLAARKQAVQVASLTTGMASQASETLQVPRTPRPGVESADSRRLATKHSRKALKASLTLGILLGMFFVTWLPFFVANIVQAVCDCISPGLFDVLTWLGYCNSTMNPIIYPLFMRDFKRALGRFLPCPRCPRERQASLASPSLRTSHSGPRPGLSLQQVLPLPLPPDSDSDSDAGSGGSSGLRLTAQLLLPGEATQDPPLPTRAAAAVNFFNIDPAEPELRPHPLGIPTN
T7 sequence (P41145 whole entry): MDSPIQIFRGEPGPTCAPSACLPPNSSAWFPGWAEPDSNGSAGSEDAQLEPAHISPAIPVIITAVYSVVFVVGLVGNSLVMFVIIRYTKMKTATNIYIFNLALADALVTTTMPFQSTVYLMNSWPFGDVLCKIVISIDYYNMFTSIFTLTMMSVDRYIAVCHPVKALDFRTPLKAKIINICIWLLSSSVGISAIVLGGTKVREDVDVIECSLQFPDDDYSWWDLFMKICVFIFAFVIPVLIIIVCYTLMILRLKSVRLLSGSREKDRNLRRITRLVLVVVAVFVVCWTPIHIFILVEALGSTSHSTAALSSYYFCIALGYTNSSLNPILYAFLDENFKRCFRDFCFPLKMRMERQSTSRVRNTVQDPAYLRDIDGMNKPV

Compound: CN(C)CCC1(c2ccc(Cl)cc2)Cc2ccccc2C(=O)O1 (stereo not shown) [Formula III]
- Competitive Antagonist % Inh [1, 10]: 13.2%
- Agonist % Eff [1, 11]: 13.6%
- Inverse Agonist % Inh [2, 12]: 11.9%
- Agonist % Eff [2, 11]: 58%
- Competitive Antagonist % Inh [3, 10]: 0%
- Inverse Agonist % Inh [3, 12]: 0%
- Agonist % Eff [3, 11]: 0%
- Agonist % Eff [4]: 0%
- Agonist % Eff [5]: 0%
- Competitive Antagonist % Inh [6, 10]: 0%
- Agonist % Eff [6, 11]: 0%
- Agonist % Eff [7]: 0%
- Agonist % Eff [8]: 0%
- locomotor activity ([9]; 10 mg/kg i.v., male NSA mice, 15 min following injection, relative to sham injected animals): decreased
- behavioural observation (responsiveness, appearance) ([9]; 10 mg/kg i.v., male NSA mice, during the session): responsive to sound and touch and otherwise appeared normal
- effects on locomotor activity in dose-response experiment ([9]; dose-response 1, 3 and 10 mg/kg i.v., result stated for 10 mg/kg): replicated
